Test results as given in PMC3654204, “2-Aminoethoxydiphenyl borate activates the mechanically gated human KCNK channels KCNK 2 (TREK-1), KCNK 4 (TRAAK), and KCNK 10 (TREK-2)” (Frontiers in Pharmacology, 2013).

How the values were obtained:
Test in all cases: two-electrode voltage clamp, Xenopus oocytes, current at +[…] mV
Format in all cases: cell-based
hKCNK2 (hTREK-1) = target: T1, hKCNK2 (hTREK-1) (Homo sapiens, UniProt O95069)
T1 construct: gene KCNK2; full-length cDNA clone in pDNR-dual purchased from Imagenes, subcloned into pSGEM; cRNA injected in Xenopus laevis oocytes; K2P channels are homodimers
T1 sequence (O95069 1-426): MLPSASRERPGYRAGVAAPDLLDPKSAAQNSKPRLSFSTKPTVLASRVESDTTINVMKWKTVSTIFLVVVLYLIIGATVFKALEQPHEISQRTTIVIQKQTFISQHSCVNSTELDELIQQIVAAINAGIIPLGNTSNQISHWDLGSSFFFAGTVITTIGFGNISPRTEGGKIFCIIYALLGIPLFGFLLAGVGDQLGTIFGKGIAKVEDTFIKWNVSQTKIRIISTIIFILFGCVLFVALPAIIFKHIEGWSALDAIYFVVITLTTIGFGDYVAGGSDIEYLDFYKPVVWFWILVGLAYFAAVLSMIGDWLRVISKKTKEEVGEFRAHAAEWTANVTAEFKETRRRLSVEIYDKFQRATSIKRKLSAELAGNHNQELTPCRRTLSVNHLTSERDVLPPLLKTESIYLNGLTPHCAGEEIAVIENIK

hKCNK10 (TREK-2) = target: T2, hKCNK10 (TREK-2) (Homo sapiens, UniProt P57789)
T2 construct: gene KCNK10; full-length cDNA clone purchased from Imagenes, subcloned into pSGEM (cRNA, Xenopus laevis oocytes) and pCDNA3 (HEK293); K2P channels are homodimers
T2 sequence (P57789 1-538): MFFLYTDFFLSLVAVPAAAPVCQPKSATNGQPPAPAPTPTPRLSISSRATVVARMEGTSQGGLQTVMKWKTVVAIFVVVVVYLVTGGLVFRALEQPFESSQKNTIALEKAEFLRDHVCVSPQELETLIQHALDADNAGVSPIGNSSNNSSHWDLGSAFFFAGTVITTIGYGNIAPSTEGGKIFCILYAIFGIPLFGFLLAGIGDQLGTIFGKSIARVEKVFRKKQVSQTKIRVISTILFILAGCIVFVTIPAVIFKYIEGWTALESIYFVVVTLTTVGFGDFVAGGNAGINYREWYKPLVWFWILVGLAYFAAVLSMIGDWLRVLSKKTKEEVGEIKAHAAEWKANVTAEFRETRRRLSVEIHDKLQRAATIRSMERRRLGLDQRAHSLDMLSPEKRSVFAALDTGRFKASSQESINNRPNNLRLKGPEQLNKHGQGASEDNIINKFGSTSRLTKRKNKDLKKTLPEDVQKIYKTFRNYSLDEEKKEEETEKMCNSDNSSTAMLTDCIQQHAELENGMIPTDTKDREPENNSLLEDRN

hKCNK4 (hTRAAK) = target: T3, hKCNK4 (hTRAAK) (Homo sapiens, UniProt Q9NYG8); settings: activator; frog Ringer's solution, pH 7.2; EC50 could not be determined; also active in inside-out HEK293 patches
T3 construct: gene KCNK4; full-length cDNA clone in pBluescript SK+ purchased from Imagenes; cRNA injected in Xenopus laevis oocytes, pCDNA3 in HEK293; K2P channels are homodimers
T3 sequence (Q9NYG8 1-393): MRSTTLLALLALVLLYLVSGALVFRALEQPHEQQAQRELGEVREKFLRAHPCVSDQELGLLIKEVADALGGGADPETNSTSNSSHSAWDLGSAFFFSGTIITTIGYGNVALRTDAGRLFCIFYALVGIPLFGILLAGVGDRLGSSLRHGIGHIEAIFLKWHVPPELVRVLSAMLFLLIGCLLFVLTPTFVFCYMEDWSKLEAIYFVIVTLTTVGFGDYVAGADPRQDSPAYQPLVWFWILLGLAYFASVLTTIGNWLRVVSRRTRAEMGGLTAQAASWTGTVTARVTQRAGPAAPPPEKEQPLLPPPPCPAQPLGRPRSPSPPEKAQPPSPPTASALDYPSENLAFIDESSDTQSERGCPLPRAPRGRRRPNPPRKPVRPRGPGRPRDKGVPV

- EC50 (hKCNK2 (hTREK-1)): 486 ± 135 µM
- EC50 (hKCNK10 (TREK-2)): 1220 ± 390 µM
- fold of basal current at 1 mM (hKCNK4 (hTRAAK)): 2.68 ± 0.2 fold
Structure (SMILES): NCCOB(c1ccccc1)c1ccccc1 [2-APB]
